Test results: publication PMC8329197, “Compounds targeting OSBPL7 increase ABCA1-dependent cholesterol efflux preserving kidney function in two models of kidney disease” (Nature Communications, 2021)
Several values for one entry are separate records, joined by “and”; a condition that tells them apart may be missing. Identical values can stand only once.

How the values were obtained:
[1] = test system: Adriamycin (ADR)-induced nephropathy in Balb/c mice; test: Adriamycin-induced nephropathy, main study: albumin/creatinine ratio and body weight
[2] = test system: Adriamycin (ADR)-induced nephropathy in Balb/c mice; test: Adriamycin-induced nephropathy, dose-finding pilot study: ACR and body weight time course; conditions: for ACR in pilot study: days 7-28; for Body Weight / ACR in spot urine: ADR, individual mice
[3] = test system: Adriamycin (ADR)-induced nephropathy in Balb/c mice; test: ADR nephropathy: liver total cholesterol, cholesterol esters, triglycerides; format: in vivo, mouse
ABCA1 protein = test: Cell fractionation: ABCA1 in plasma membrane and microsomal fractions of podocytes; format: cell-based, human; conditions: podocytes; Cpd A 5 µM, Cpd G 10 µM
Experimental: Lysates, or cell fractions were incubated in Laemmli buffer at 55 °C for 10 min under reducing conditions. A total of 30 μg of protein from cell lysates or one-third of the volume collected in cell fraction preparations was separated by SDS-PAGE in 4–20% gradient gels (Biorad) and proteins were then transferred to PVDF membranes. After blocking with 5% TBS-milk, membranes were probed with primary antibodies overnight at 4 °C. The following primary antibodies were used: mouse anti-ABCA1 (Abcam; 1:1000), rabbit anti-GAPDH antibody (Millipore; 1:10,000), mouse anti-actin (CP01, Millipore 1:10,000), anti-MEK, anti-ERp72, anti-V5 and anti-Na^+/K^+ ATPase (Cell Signaling; all 1:1000), and rabbit anti-OSBPL7 (Sigma; 1:1000). After washing, membranes were incubated with anti-rabbit or and anti-mouse IgG-HRP antibodies (Promega, 1:10,000). Signals were detected after incubation with Westernbright ECL HRP substrate (Advansta) and luminescence signals were captured with Azure C600 Gel Imaging workstation (Azure Biosystems Inc, USA) or X-ray films.
Differentiated podocytes were treated with compounds Cpd C (1 μM), Cpd A (5 μM), or Cpd G (10 μM) for 18 h, washed and then harvested in ice-cold PBS. Cells were centrifuged at 1000 × g for 5 min, the supernatant was carefully removed, and the pellet resuspended in hypotonic buffer (15 mM KCl, 1.5 mM MgCl2, 10 mM HEPES and 1 mM DTT) supplemented with a protease inhibitor cocktail (Roche). Cells were disrupted with a glass douncer, and sucrose was added to achieve final concentration of 227 mM. Cell lysates were centrifuged at 1000 × g for 30 min at 4 °C. The supernatant was then transferred to a new tube and centrifuged at 10,000 × g for 15 min at 4 °C. The pellet, containing the microsomal fraction was collected and the supernatant was transferred to a new tube and centrifuged at 100,000 × g for 1 h at 4 °C. The pelleted plasma membrane fraction was collected and the supernatant, containing the organelle-free cytosolic fraction, was concentrated in Vivaspin 500 filter columns. Western blot was performed using antibodies for ABCA1 and specific markers for each membrane fraction as described above. Na^+/K^+ ATPase was used to identify the plasma membrane fraction, ERp72 as a marker for the microsomal-enriched fraction, and MEK as the control for the non-membranous cytosolic fraction.

[4] = test system: Adriamycin (ADR)-induced nephropathy in Balb/c mice; test: ADR nephropathy: kidney cortex lipids (cholesterol ester, total cholesterol, triglycerides, Oil-red O); format: in vivo, mouse; conditions: ADR model; individual animals
Experimental: OCT embedded kidney cortex samples were cryosectioned at 4 μm thickness and stained with Oil-Red O-isopropanol solution (Electron Microscopy Science, PA) diluted 6:4 in water, and then counterstained with Hematoxylin Harris Hg Free (VWR, PA). Sections were then evaluated using a light microscope (Olympus BX 41, Tokyo, Japan).
Snap frozen kidney cortex samples were homogenized in 2 mM potassium phosphate buffer, pH 7, (10 µl buffer/mg tissue) using a glass douncer on ice. 100 μl of the homogenate were mixed thoroughly with 1 ml of hexane:isopropanol (3:2;v:v) per volume of tissue homogenate. The aqueous (pellet) and organic (supernatant) phases were separated by centrifugation at 12,000 × g for 5 min. Pellets (aqueous phase) were dried, reconstituted in 8 M urea, 0.1% SDS, 0.1 M NaOH, and total proteins were quantified by the BCA method (Thermofisher). The organic phase was dried by exposure to nitrogen. Lipids were then reconstituted in 100 µl isopropanol:NP-40 (9:1;v:v). Triglyceride content was assayed using a colorimetric kit according to the manufacturer’s instructions (Cayman Chemical USA). Total cholesterol and CE content were assayed using an enzymatic fluorometric method. For total cholesterol measurement, extracts were diluted 1:100 in assay buffer (100 mM potassium phosphate, 50 mM NaCl, 5 mM cholic acid, 0.1% Triton […], pH 7.4) containing cholesterol oxidase (1 U/ml), cholesterol esterase (1 U/ml), horseradish peroxidase (1 U/ml), and Amplex Red (75 µM). The reactions were incubated at 37 °C for 30 min in a black opaque 96-well plate (Greiner) and fluorescence was measured in a microplate reader (Spectramax i3X, Molecular Devices) at 530 nm excitation and 580 emission.
For CE determination, 150 µl of the assay buffer described above, supplemented with bovine liver catalase (45 U/ml) and cholesterol oxidase (1 U/ml), was added to 25 μl of sample and incubated overnight at 37 °C to deplete free cholesterol leaving only cholesterol esters. Then, 75 µl of cholesterol ester detection reagent (1 U/ml cholesterol oxidase, 4 U/ml cholesterol esterase, 24 U/ml horseradish peroxidase, 300 µM Amplex Red) was added. The reaction was incubated at 37 °C for 30 min and the fluorescence signal was measured as described above. Internal standards included samples containing 1 mM of cholesterol and 5 μM of cholesterol oleate in order to verify the completeness of the enzymatic decomposition of free cholesterol as well as assay sensitivity and specificity.

[5] = 30 mg/Kg/day, 7 days after inj, 30 mg/kg/day
[6] = 30 mg/Kg/day, 14 days after inj, 30 mg/kg/day
[7] = 100 mg/Kg/day, 7 days after inj, 100 mg/kg/day
[8] = 100 mg/Kg/day, 14 days after inj, 100 mg/kg/day
[9] = 100 mg/Kg/day, 21 days after inj, 100 mg/kg/day
[10] = 100 mg/Kg/day, 28 days after inj, 100 mg/kg/day

## O=C(N[C@@H]1CCCC[C@H]1O)c1ccc(OCC(F)(F)F)c(-c2ccc(Cl)c(Cl)c2)n1 [Cpd A]
[1]; 28 days after ADR
  Effect on weight loss: substantially reduced weight loss
[1]; 28 days after ADR, Cpd A 30, Cpd G 100, Cpd C 10 mg/Kg, group median
  ACR, median: 2.3 mg albumin/mg creatinine and 2.363 mg albumin/mg creatinine
[1]; animal weight when therapy finished, single animals
  Weight (d28): 19 and 21 and 18 and 15 and 20
[1]; day 28 after ADR, Cpd A 30, Cpd G 100, Cpd C 10 mg/Kg
  Weight Change (as % of weight at day 0), Median: 0%
[1]; day 28 after ADR, Cpd A 30, Cpd G 100, Cpd C 10 mg/Kg, single animals
  Weight Change (as % of weight at day 0): 0% and -5.3% and -4.5% and -6.3% and -25% and 5.6%
[1]; spot urine 28 days after ADR, oral daily Cpd A 30, Cpd G 100, Cpd C 10 mg/Kg, single animals
  ACR values (mg Albumin / mg Creatinine): 0.242 mg Albumin / mg Creatinine and 6.27 mg Albumin / mg Creatinine and 20.39 mg Albumin / mg Creatinine and 14.37 mg Albumin / mg Creatinine and 0.707 mg Albumin / mg Creatinine and 11.834 mg Albumin / mg Creatinine and 0.631 mg Albumin / mg Creatinine and 2.363 mg Albumin / mg Creatinine and 0.33 mg Albumin / mg Creatinine and 3.08 mg Albumin / mg Creatinine and 0.093 mg Albumin / mg Creatinine
[1]; vs ADR+V, 28 days, Cpd A 30, Cpd G 100 mg/kg/day
  Times lower ACR: 8 times
[2]; 30 mg/kg/day oral
  ACR in pilot study: significantly improved
[2]; 100 mg/kg/day oral
  ACR in pilot study: significantly improved
[2]; 30 mg/Kg/day, 0 days after inj, 30 mg/kg/day
  Body Weight: 19 grams (3×) and 18 grams and 20 grams
[2]; [5]
  ACR in spot urine: 0.046 mg Albumin/ mg Creatinine in urine and 0.018 mg Albumin/ mg Creatinine in urine and 0.038 mg Albumin/ mg Creatinine in urine and 0.025 mg Albumin/ mg Creatinine in urine and 0.07 mg Albumin/ mg Creatinine in urine
  Body Weight: 18 grams and 17 grams (3×) and 19 grams
[2]; [6]
  ACR in spot urine: 18.583 mg Albumin/ mg Creatinine in urine and 0.363 mg Albumin/ mg Creatinine in urine and 64.328 mg Albumin/ mg Creatinine in urine and 0.368 mg Albumin/ mg Creatinine in urine and 1.926 mg Albumin/ mg Creatinine in urine
  Body Weight: 18 grams (3×) and 17 grams (2×)
[2]; 30 mg/Kg/day, 21 days after inj
  Body Weight: 18 grams
[2]; 30 mg/Kg/day, 21 days after inj, 30 mg/kg/day
  ACR in spot urine: 1.551 mg Albumin/ mg Creatinine in urine and 71.309 mg Albumin/ mg Creatinine in urine and 0.609 mg Albumin/ mg Creatinine in urine and 0.814 mg Albumin/ mg Creatinine in urine
[2]; 30 mg/Kg/day, 28 days after inj
  Body Weight: 19 grams
[2]; 30 mg/Kg/day, 28 days after inj, 30 mg/kg/day
  ACR in spot urine: 2.363 mg Albumin/ mg Creatinine in urine and 0.33 mg Albumin/ mg Creatinine in urine and 3.08 mg Albumin/ mg Creatinine in urine and 0.093 mg Albumin/ mg Creatinine in urine and 0.242 mg Albumin/ mg Creatinine in urine
[2]; 100 mg/Kg/day, 0 days after inj, 100 mg/kg/day
  Body Weight: 20 grams (2×) and 18 grams and 19 grams (2×)
[2]; [7]
  ACR in spot urine: 0.022 mg Albumin/ mg Creatinine in urine and 0.015 mg Albumin/ mg Creatinine in urine and 0.072 mg Albumin/ mg Creatinine in urine and 0.065 mg Albumin/ mg Creatinine in urine
  Body Weight: 18 grams and 17 grams (4×)
[2]; [8]
  ACR in spot urine: 5.851 mg Albumin/ mg Creatinine in urine and 174.428 mg Albumin/ mg Creatinine in urine and 9.218 mg Albumin/ mg Creatinine in urine and 96.72 mg Albumin/ mg Creatinine in urine
  Body Weight: 17 grams (3×) and 18 grams and 19 grams
[2]; [9]
  ACR in spot urine: 3.536 mg Albumin/ mg Creatinine in urine and 136.245 mg Albumin/ mg Creatinine in urine and 73.737 mg Albumin/ mg Creatinine in urine and 208.282 mg Albumin/ mg Creatinine in urine
  Body Weight: 15 grams and 18 grams (3×)
[2]; [10]
  ACR in spot urine: 0.638 mg Albumin/ mg Creatinine in urine and 26.929 mg Albumin/ mg Creatinine in urine and 1.99 mg Albumin/ mg Creatinine in urine and 18.858 mg Albumin/ mg Creatinine in urine
  Body Weight: 15 grams and 19 grams and 18 grams and 14 grams
[3]; ADR model, individual animals
  LIVER CHOLESTEROL ESTERS: 1.39 nmol CE/ mg protein and 2.25 nmol CE/ mg protein and 2.79 nmol CE/ mg protein and 8 nmol CE/ mg protein and 3.82 nmol CE/ mg protein and 8.05 nmol CE/ mg protein
  LIVER TOTAL CHOLESTEROL: 120 nmol Cholesterol/ mg protein and 119 nmol Cholesterol/ mg protein and 149 nmol Cholesterol/ mg protein and 163 nmol Cholesterol/ mg protein and 112 nmol Cholesterol/ mg protein and 195 nmol Cholesterol/ mg protein
  LIVER TRIGLICERIDES: 75 nmol Triglycerides/ mg protein and 54.7 nmol Triglycerides/ mg protein and 58 nmol Triglycerides/ mg protein and 69 nmol Triglycerides/ mg protein and 38 nmol Triglycerides/ mg protein and 54.5 nmol Triglycerides/ mg protein
[3]; ADR-challenged, 28 days
  Hepatic triglyceride content vs. vehicle-treated controls: increased hepatic triglyceride content
ABCA1 protein
  ABCA1 at the plasma membrane: increased ABCA1 at the plasma membrane
  ABCA1 in microsomal fractions: did not increase ABCA1 in microsomal fractions
[4]
  KIDNEY CORTEX TOTAL CHOLESTEROL: 116.65 nmol Chol./mg protein and 64.31 nmol Chol./mg protein and 91.93 nmol Chol./mg protein and 226.3 nmol Chol./mg protein and 280.19 nmol Chol./mg protein and 194.83 nmol Chol./mg protein and 293.03 nmol Chol./mg protein and 87.04 nmol Chol./mg protein and 85.55 nmol Chol./mg protein and 75 nmol Chol./mg protein and 105.96 nmol Chol./mg protein
  KIDNEY CORTEX TRIGLYCERIDES: 65.49 nmol Triglyceride /mg protein and 206.46 nmol Triglyceride /mg protein and 31.6 nmol Triglyceride /mg protein and 59.01 nmol Triglyceride /mg protein and 14.83 nmol Triglyceride /mg protein and 65.84 nmol Triglyceride /mg protein and 43.06 nmol Triglyceride /mg protein and 145.74 nmol Triglyceride /mg protein and 110.74 nmol Triglyceride /mg protein
